Laboratory results from patent publication US5663207A, “Gem-dichlorocyclopropanes as antitumor agents” (priority 1995, dated 1997).

Experiments:
[1] = test system: Immature Swiss-Webster female mice (uterine weight); experiment: Uterotrophic assay for estrogenic activity in immature mice; type: in vivo, mouse (Swiss-Webster)
Text: (§1) The biological evaluation of the test compounds consisted of the in vitro rat cytosolic estradiol receptor binding assay, the in vivo immature mouse uterotrophic (estrogenic) and antiuterotrophic (antiestrogenic) assays, and the in vitro suppression of the proliferation of the ER positive MCF-7 human breast cancer cell line.
Vital-free immature female Swiss-Webster mice were obtained at 17-19 days of age from Sasco weighing 8-10 g, and were used in the uterotrophic and antiuterotrophic assays. Immature female Sprague-Dawley rats, obtained at 17-19 days of age from Sasco, weighing 28-33 g, were used as sources of uteri for the estradiol receptor binding assay. Animals were housed in wire topped polycarbonate cages at six animals per cage, with the environment controlled at 25° C. and a 12 h light/dark cycle. The animals received a diet of Wayne Lab Blox rodent chow and tap water ad libitum.
Immature Swiss-Webster female mice (8-15 g) at 17-19 days of age were used. Estradiol was used in the dosage range of […] (total dose) as the assay standard. Each cyclopropyl analogue was examined at doses of 5, 25, and 100 μg (total dose). […] Estrogenic activity was measured as an increase in uterine weight produced by each test compound.

[2] = test system: Immature Swiss-Webster female mice (estradiol-stimulated uterine weight); experiment: Antiuterotrophic assay for antiestrogenic activity in immature mice; type: in vivo, mouse (Swiss-Webster); conditions: 0.4, 0.8, and 1.6 mg; three-day assay; estradiol 0.03 μg
Text: as §1
Vital-free immature female Swiss-Webster mice were obtained at 17-19 days of age from Sasco weighing 8-10 g, and were used in the uterotrophic and antiuterotrophic assays. Immature female Sprague-Dawley rats, obtained at 17-19 days of age from Sasco, weighing 28-33 g, were used as sources of uteri for the estradiol receptor binding assay. Animals were housed in wire topped polycarbonate cages at six animals per cage, with the environment controlled at 25° C. and a 12 h light/dark cycle. […]
The antiestrogenic assay was conducted as described for the estrogenic assay, except that each mouse in the cyclopropyl treatment groups received a standard stimulating dose of estradiol (0.03 μg) in sesame oil (0.1 mL) and the test compounds or MER 25 were administered in isopropyl myristate (0.05 mL) in a dosage range of 0.4, 0.8 and 1.6 mg (total dose). […] Antiestrogenic activity was measured as a decrease in the estradiol-stimulated […] response in groups that received both the test compound and estradiol as compared to the group treated only with estradiol.

Oc1ccc(C2(c3ccc(O)cc3)C(Cl)(Cl)C23CCCCC3)cc1 [Compound 30, 1,1-Dichloro-2,2-bis-(p-hydroxyphenyl)-spiro[2.5]octane]
uterine weight response (estrogenic activity, in words) ([1]; doses of 5, 25 and 100 μg (total dose)): dose-dependent increase in uterine weight | relative potency (uterotrophic) versus estradiol ([1]; of that of estradiol, doses of 5, 25, and 100 μg): 0.05% | antiestrogenic activity: effect on estradiol-induced uterine weight gain (in words) [2]: augmented uterotrophic effects beyond the stimulating dose of estradiol
